{
  "source": "patent US20130189320A1",
  "about": "“METHOD OF PREPARING A CONTROLLED RELEASE PARTICLE OF SOY ISOFLAVONE WITH BIODEGRADABLE POLYMER USING A SUPERCRITICAL FLUID EXTRACTION OF EMULSION (SFEE) PROCESS” (Nano and Advanced Materials Institute Limited, priority 2012, published 2013)",
  "key": {"[1]": {"assay": "in vitro drug release study, aqueous medium containing 1% Tween 80", "type": "physicochemical", "conditions": "24-hour period, FIG. 3", "text": "In the drug release study, an aqueous medium containing 1% Tween 80 is used to re-suspend the genistein-containing PLGA particles or the raw genistein. The cumulative release percentage of the encapsulated genistein from the PLGA coated particles and that of the raw genistein without PLGA for a 24-hour period is shown in FIG. 3. […] That may be due to the presence of free and weakly bound drug on the surface of particulate carriers. […] In FIG. 3, the encapsulated genistein from the PLGA coated particles has a cumulative release percentage of below 20% within the first 24 hours while the raw genistein has over 40% of release over the 24-hour period. From this in vitro study, it could be said that the extended release profile of genistein-containing PLGA particles can increase the chance of genistein to be utilized in human body, which further leads to an improved bioavailability. The slower the release rate is, more available active ingredients are released to a specific site of action."}, "[2]": {"assay": "particle morphology and size under scanning electron microscope (SEM)", "type": "physicochemical", "text": "It appears from the SEM images that the particle of genistein with PLGA has a nearly spherical shape and an average size of less than 1 μm. In comparison, the raw genistein is rectangular rod-shaped and the width (i.e., the shortest side of the rectangular rod-shaped raw genistein) is about 10 μm. PLGA matrix can protect genistein from degradation in the gastrointestinal tract and also from first-pass metabolism in the liver. Meanwhile, the nearly spherical shape of the genistein particle with the size less than 1 μm has a larger surface area to favor the interaction between the particle and the target cell in order to increase the chance of localizing on the target cell and delivering the genistein encapsulated in the particle in a controlled release manner."}},
  "data": [
    {"smiles": "O=c1c(-c2ccc(O)cc2)coc2cc(O)cc(O)c12", "note": "[raw genistein, genistein]", "values": [
      {"measurement": "cumulative release percentage of genistein", "setting": "[1]", "value": "over 40%"},
      {"measurement": "width (shortest side of rectangular rod-shaped particle)", "setting": "[2]", "value": "about 10 μm"}
    ]}
  ]
}
